Source: BigSolDB 2.1

In the case of `COc1cc2nc(Cl)nc(N)c2cc1OC`, the solubility (mole fraction) (in 1,4-dioxane, 288.15 K) is reported as 0.000108, the solubility (mole fraction) (in 1,4-dioxane, 293.15 K) is reported as 0.000129 and the solubility (mole fraction) (in 1,4-dioxane, 298.15 K) is reported as 0.000154. It also gave a solubility (mole fraction) (in 1,4-dioxane, 303.15 K) of 0.000183, a solubility (mole fraction) (in 1,4-dioxane, 308.15 K) of 0.000216 and a solubility (mole fraction) (in 1,4-dioxane, 313.15 K) of 0.000253. It also gave a solubility (mole fraction) (in DMF, 273.15 K) of 0.00286, a solubility (mole fraction) (in DMF, 278.15 K) of 0.00336 and a solubility (mole fraction) (in DMF, 283.15 K) of 0.00405. The solubility (mole fraction) (in DMF, 288.15 K) was 0.00495, the solubility (mole fraction) (in DMF, 293.15 K) was 0.00586 and the solubility (mole fraction) (in DMF, 298.15 K) was 0.00687. For the same compound, the solubility (mole fraction) (in DMF, 303.15 K) was 0.00817, the solubility (mole fraction) (in DMF, 308.15 K) was 0.00979 and the solubility (mole fraction) (in DMF, 313.15 K) was 0.0116. The solubility (mole fraction) (in NMP, 273.15 K) was 0.00572, the solubility (mole fraction) (in NMP, 278.15 K) was 0.00648 and the solubility (mole fraction) (in NMP, 283.15 K) was 0.00746. The solubility (mole fraction) (in NMP, 288.15 K) was 0.00838, the solubility (mole fraction) (in NMP, 293.15 K) was 0.00932 and the solubility (mole fraction) (in NMP, 298.15 K) was 0.0103. For the same compound, the solubility (mole fraction) (in NMP, 303.15 K) was 0.0113, the solubility (mole fraction) (in NMP, 308.15 K) was 0.0124 and the solubility (mole fraction) (in NMP, 313.15 K) was 0.0137. The solubility (mole fraction) (in cyclohexanone, 273.15 K) was 0.00109, the solubility (mole fraction) (in cyclohexanone, 278.15 K) was 0.0013 and the solubility (mole fraction) (in cyclohexanone, 283.15 K) was 0.00151. It also gave a solubility (mole fraction) (in cyclohexanone, 288.15 K) of 0.00177, a solubility (mole fraction) (in cyclohexanone, 293.15 K) of 0.00206 and a solubility (mole fraction) (in cyclohexanone, 298.15 K) of 0.00241. The solubility (mole fraction) (in cyclohexanone, 303.15 K) was 0.0028, the solubility (mole fraction) (in cyclohexanone, 308.15 K) was 0.00324 and the solubility (mole fraction) (in cyclohexanone, 313.15 K) was 0.00385. It also gave a solubility (mole fraction) (in ethanol, 273.15 K) of 0.000169, a solubility (mole fraction) (in ethanol, 278.15 K) of 0.000206 and a solubility (mole fraction) (in ethanol, 283.15 K) of 0.000246. It also gave a solubility (mole fraction) (in ethanol, 288.15 K) of 0.0003, a solubility (mole fraction) (in ethanol, 293.15 K) of 0.000359 and a solubility (mole fraction) (in ethanol, 298.15 K) of 0.000423. For the same compound, the solubility (mole fraction) (in ethanol, 303.15 K) was 0.000497, the solubility (mole fraction) (in ethanol, 308.15 K) was 0.000585 and the solubility (mole fraction) (in ethanol, 313.15 K) was 0.000693. For the same compound, the solubility (mole fraction) (in ethyl acetate, 273.15 K) was 0.000278, the solubility (mole fraction) (in ethyl acetate, 278.15 K) was 0.000322 and the solubility (mole fraction) (in ethyl acetate, 283.15 K) was 0.000375. For the same compound, the solubility (mole fraction) (in ethyl acetate, 288.15 K) was 0.000443, the solubility (mole fraction) (in ethyl acetate, 293.15 K) was 0.000522 and the solubility (mole fraction) (in ethyl acetate, 298.15 K) was 0.000618. It also gave a solubility (mole fraction) (in ethyl acetate, 303.15 K) of 0.000725, a solubility (mole fraction) (in ethyl acetate, 308.15 K) of 0.000853 and a solubility (mole fraction) (in ethyl acetate, 313.15 K) of 0.00101. It also gave a solubility (mole fraction) (in isobutanol, 273.15 K) of 0.000232, a solubility (mole fraction) (in isobutanol, 278.15 K) of 0.000272 and a solubility (mole fraction) (in isobutanol, 283.15 K) of 0.000325. For the same compound, the solubility (mole fraction) (in isobutanol, 288.15 K) was 0.00038, the solubility (mole fraction) (in isobutanol, 293.15 K) was 0.000443 and the solubility (mole fraction) (in isobutanol, 298.15 K) was 0.000514. It also gave a solubility (mole fraction) (in isobutanol, 303.15 K) of 0.000601, a solubility (mole fraction) (in isobutanol, 308.15 K) of 0.000706 and a solubility (mole fraction) (in isobutanol, 313.15 K) of 0.000841. For the same compound, the solubility (mole fraction) (in isopropanol, 273.15 K) was 0.000142, the solubility (mole fraction) (in isopropanol, 278.15 K) was 0.000173 and the solubility (mole fraction) (in isopropanol, 283.15 K) was 0.000209. For the same compound, the solubility (mole fraction) (in isopropanol, 288.15 K) was 0.000257, the solubility (mole fraction) (in isopropanol, 293.15 K) was 0.000306 and the solubility (mole fraction) (in isopropanol, 298.15 K) was 0.000362. For the same compound, the solubility (mole fraction) (in isopropanol, 303.15 K) was 0.000434, the solubility (mole fraction) (in isopropanol, 308.15 K) was 0.000518 and the solubility (mole fraction) (in isopropanol, 313.15 K) was 0.000622. It also gave a solubility (mole fraction) (in methanol, 273.15 K) of 0.000109, a solubility (mole fraction) (in methanol, 278.15 K) of 0.000139 and a solubility (mole fraction) (in methanol, 283.15 K) of 0.000171. It also gave a solubility (mole fraction) (in methanol, 288.15 K) of 0.00021, a solubility (mole fraction) (in methanol, 293.15 K) of 0.000255 and a solubility (mole fraction) (in methanol, 298.15 K) of 0.00031. For the same compound, the solubility (mole fraction) (in methanol, 303.15 K) was 0.000378, the solubility (mole fraction) (in methanol, 308.15 K) was 0.000458 and the solubility (mole fraction) (in methanol, 313.15 K) was 0.000544. It also gave a solubility (mole fraction) (in n-butanol, 273.15 K) of 0.000252, a solubility (mole fraction) (in n-butanol, 278.15 K) of 0.000294 and a solubility (mole fraction) (in n-butanol, 283.15 K) of 0.000345. It also gave a solubility (mole fraction) (in n-butanol, 288.15 K) of 0.000402, a solubility (mole fraction) (in n-butanol, 293.15 K) of 0.000467 and a solubility (mole fraction) (in n-butanol, 298.15 K) of 0.000548. For the same compound, the solubility (mole fraction) (in n-butanol, 303.15 K) was 0.000648, the solubility (mole fraction) (in n-butanol, 308.15 K) was 0.000763 and the solubility (mole fraction) (in n-butanol, 313.15 K) was 0.000929. The solubility (mole fraction) (in n-propanol, 273.15 K) was 0.000209, the solubility (mole fraction) (in n-propanol, 278.15 K) was 0.000245 and the solubility (mole fraction) (in n-propanol, 283.15 K) was 0.00029. For the same compound, the solubility (mole fraction) (in n-propanol, 288.15 K) was 0.000343, the solubility (mole fraction) (in n-propanol, 293.15 K) was 0.000403 and the solubility (mole fraction) (in n-propanol, 298.15 K) was 0.000471. For the same compound, the solubility (mole fraction) (in n-propanol, 303.15 K) was 0.000552, the solubility (mole fraction) (in n-propanol, 308.15 K) was 0.000657 and the solubility (mole fraction) (in n-propanol, 313.15 K) was 0.000769. For the same compound, the solubility (mole fraction) (in toluene, 273.15 K) was 2e-06, the solubility (mole fraction) (in toluene, 278.15 K) was 2.7e-06 and the solubility (mole fraction) (in toluene, 283.15 K) was 3.7e-06. It also gave a solubility (mole fraction) (in toluene, 288.15 K) of 5.1e-06, a solubility (mole fraction) (in toluene, 293.15 K) of 6.9e-06 and a solubility (mole fraction) (in toluene, 298.15 K) of 9.2e-06. It also gave a solubility (mole fraction) (in toluene, 303.15 K) of 1.26e-05, a solubility (mole fraction) (in toluene, 308.15 K) of 1.66e-05 and a solubility (mole fraction) (in toluene, 313.15 K) of 2.17e-05.
